Test results taken from US10669272B2, “Substituted naphthyridinone compounds useful as T cell activators” (BRISTOL-MYERS SQUIBB COMPANY, priority 2018, dated 2020).
Like-named read-outs stand apart in the source and are kept apart here.

Tests used:
human DGKα = target: T1, human DGKα (Homo sapiens, UniProt P23743); assay: DGKα LIPGLO assay (extruded liposome substrate), in vitro DGK inhibition; format: biochemical; conditions: liposome (LIPGLO) assay; read-out: DGKa LIPGLO IC50
T1 construct: TVMV protease cleavage site (C); Hexa-His (C); made in house; host or cells: Sf9 insect cells (baculovirus, Bac-to-Bac)
T1 sequence (P23743 with tags, fused parts or gaps): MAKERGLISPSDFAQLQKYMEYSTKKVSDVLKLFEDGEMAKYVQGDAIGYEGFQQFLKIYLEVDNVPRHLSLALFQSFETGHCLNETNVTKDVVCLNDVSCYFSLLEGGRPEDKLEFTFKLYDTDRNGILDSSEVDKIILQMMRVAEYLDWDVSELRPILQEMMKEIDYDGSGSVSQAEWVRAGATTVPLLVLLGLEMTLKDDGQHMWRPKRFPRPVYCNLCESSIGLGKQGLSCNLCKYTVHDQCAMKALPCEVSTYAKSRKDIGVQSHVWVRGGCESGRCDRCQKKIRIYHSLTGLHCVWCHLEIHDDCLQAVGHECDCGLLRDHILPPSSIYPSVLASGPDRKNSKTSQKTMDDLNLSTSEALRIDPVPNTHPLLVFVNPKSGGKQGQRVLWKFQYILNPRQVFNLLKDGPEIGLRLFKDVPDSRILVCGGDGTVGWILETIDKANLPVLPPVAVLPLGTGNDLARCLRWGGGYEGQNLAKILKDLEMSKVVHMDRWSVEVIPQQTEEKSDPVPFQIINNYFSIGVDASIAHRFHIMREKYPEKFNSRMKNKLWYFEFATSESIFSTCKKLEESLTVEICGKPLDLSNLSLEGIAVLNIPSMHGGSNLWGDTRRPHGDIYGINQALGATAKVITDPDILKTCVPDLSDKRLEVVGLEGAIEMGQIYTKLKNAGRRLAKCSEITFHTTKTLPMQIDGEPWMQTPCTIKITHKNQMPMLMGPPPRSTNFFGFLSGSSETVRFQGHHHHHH

human DGKζ = target: T2, human DGKζ (Homo sapiens, UniProt Q13574); assay: DGKζ LIPGLO assay (extruded liposome substrate), in vitro DGK inhibition; format: biochemical; conditions: liposome (LIPGLO) assay; read-out: DGKz LIPGLO IC50
T2 construct: TVMV protease cleavage site (C); Hexa-His (C); made in house; host or cells: Sf9 insect cells (baculovirus, Bac-to-Bac)
T2 sequence (Q13574 with tags, fused parts or gaps isoform Q13574-4): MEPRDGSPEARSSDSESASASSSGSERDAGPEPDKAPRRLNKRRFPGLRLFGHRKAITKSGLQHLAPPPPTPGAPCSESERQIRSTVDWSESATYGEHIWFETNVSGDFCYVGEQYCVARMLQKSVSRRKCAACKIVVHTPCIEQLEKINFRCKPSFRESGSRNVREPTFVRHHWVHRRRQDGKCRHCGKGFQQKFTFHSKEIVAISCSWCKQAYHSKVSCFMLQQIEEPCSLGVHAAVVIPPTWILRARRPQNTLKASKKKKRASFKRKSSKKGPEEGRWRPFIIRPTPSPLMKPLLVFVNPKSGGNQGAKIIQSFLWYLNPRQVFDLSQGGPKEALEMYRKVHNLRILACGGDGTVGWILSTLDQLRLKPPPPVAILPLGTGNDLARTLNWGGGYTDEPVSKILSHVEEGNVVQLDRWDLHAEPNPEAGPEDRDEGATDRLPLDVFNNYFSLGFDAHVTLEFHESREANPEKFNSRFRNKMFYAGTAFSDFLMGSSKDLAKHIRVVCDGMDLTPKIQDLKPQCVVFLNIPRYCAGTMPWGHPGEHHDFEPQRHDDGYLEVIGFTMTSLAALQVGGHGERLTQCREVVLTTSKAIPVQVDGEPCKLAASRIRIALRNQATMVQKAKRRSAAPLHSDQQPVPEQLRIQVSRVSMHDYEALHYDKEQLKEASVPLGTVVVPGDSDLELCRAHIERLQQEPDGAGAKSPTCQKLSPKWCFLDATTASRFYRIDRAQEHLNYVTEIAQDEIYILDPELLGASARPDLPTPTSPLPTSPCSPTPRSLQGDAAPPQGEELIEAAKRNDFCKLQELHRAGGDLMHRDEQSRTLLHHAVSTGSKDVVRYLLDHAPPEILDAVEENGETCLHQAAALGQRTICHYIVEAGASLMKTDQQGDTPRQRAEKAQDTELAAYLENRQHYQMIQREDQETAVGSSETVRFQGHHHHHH

naïve human CD8 T cells = assay: Human CD8 T cells IFN-γ assay; format: cell-based; conditions: normalized to 3 μM reference compound with anti-CD3 plus anti-CD28 as 100% activation, read-out: HuCD8 INFG Normalized EC50;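 note: Naïve human CD8 T cells stimulated with plate-bound anti-CD3 and soluble anti-CD28, IFN-γ in supernatant quantified by AlphaLISA and converted to pg/mL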

| IC50 (human DGKα) [µM] | IC50 (human DGKζ) [µM] | SMILES | EC50 (naïve human CD8 T cells) [µM] | EC50 (naïve human CD8 T cells; Homo sapiens, T-cell, 20 h) [µM] |
| --- | --- | --- | --- | --- |
| 48 | 0.92 | COC(=O)C1CN(c2cc(=O)n(C)c3ccc(C#N)nc23)CCN1C(c1ccc(F)cc1)c1ccc(F)cc1OC (single isomer, unassigned) [Example 67, Methyl 4-(6-cyano-1-methyl-2-oxo-1,2-dihydro-1,5-naphthyridin-4-yl)-1-((4-fluoro-2-methoxyphenyl)(4-fluorophenyl)methyl)piperazine-2-carboxylate] | 0.03 |  |
| 240 | 180 | Cn1c(=O)cc(N2CCN(C(c3ccc(F)cc3)c3ccc(F)cc3)C(C(=O)O)C2)c2nc(C#N)ccc21 (stereo not drawn) [Example 55, 1-(bis(4-fluorophenyl)methyl)-4-(6-cyano-1-methyl-2-oxo-1,2-dihydro-1,5-naphthyridin-4-yl)piperazine-2-carboxylic acid] |  | 6.4 |
| 14 | 46 | Cn1c(=O)cc(N2CCN(C(c3ccc(F)cc3)c3ccc(F)cc3)C(C(N)=O)C2)c2nc(C#N)ccc21 (single isomer, unassigned) [Example 41, 1-(bis(4-fluorophenyl)methyl)-4-(6-cyano-1-methyl-2-oxo-1,2-dihydro-1,5-naphthyridin-4-yl)piperazine-2-carboxamide] | 1.5 |  |
| 240 | 15 | CC(C)OC(=O)C1CN(c2cc(=O)n(C)c3ccc(C#N)nc23)CCN1C(c1ccc(F)cc1)c1ccc(F)cc1 (single isomer, unassigned) [Example 62, Isopropyl 1-(bis(4-fluorophenyl)methyl)-4-(6-cyano-1-methyl-2-oxo-1,2-dihydro-1,5-naphthyridin-4-yl)piperazine-2-carboxylate] | 1.8 |  |
| 15 | 20 | COc1ccc2c(n1)c(N1C[C@@H](C)N(C(c3ccc(F)cc3)c3ccc(Cl)cc3)C[C@@H]1C)cc(=O)n2C (stereo partly drawn) [Example 240, 4-[(2S,5R)-4-[(4-chlorophenyl)(4-fluorophenyl)methyl]-2,5-dimethylpiperazin-1-yl]-6-methoxy-1-methyl-1,2-dihydro-1,5-naphthyridin-2-one] |  | 12 |
| 82 | 95 | Cn1c(=O)cc(N2CCN(C(c3ccc(F)cc3)c3ccc(F)cc3)CC2C(=O)O)c2nc(C#N)ccc21 (stereo not drawn) [Example 138, 4-(bis(4-fluorophenyl)methyl)-1-(6-cyano-1-methyl-2-oxo-1,2-dihydro-1,5-naphthyridin-4-yl)piperazine-2-carboxylic acid] |  | 10 |
| 1.4 | 2.4 | Cn1c(=O)cc(N2CCN(C(c3ccc(F)cc3)c3ccc(F)cc3)CC2C#N)c2nc(C#N)ccc21 (single isomer, unassigned) [Example 144, 8-(4-(bis(4-fluorophenyl)methyl)-2-cyanopiperazin-1-yl)-5-methyl-6-oxo-5,6-dihydro-1,5-naphthyridine-2-carbonitrile] |  | 1.2 |
| 0.93 | 1.4 | C[C@@H]1CN(c2cc(=O)n(C)c3ccc(C#N)nc23)[C@@H](C)CN1C(c1ccccc1)c1ccccc1 [Example 237, 8-[(2S,5R)-4-(diphenylmethyl)-2,5-dimethylpiperazin-1-yl]-5-methyl-6-oxo-5,6-dihydro-1,5-naphthyridine-2-carbonitrile] |  | 0.039 |
| 0.24 | 94 | Cn1c(=O)cc(N2CCN(C(c3ccc(F)cc3)c3ccc(F)cc3)C(C)(C)C2)c2nc(C#N)ccc21 [Example 171, 8-(4-(bis(4-fluorophenyl)methyl)-3,3-dimethylpiperazin-1-yl)-5-methyl-6-oxo-5,6-dihydro-1,5-naphthyridine-2-carbonitrile] |  | 10 |
| 62 | 1.6 | COc1cc(F)ccc1C(c1ccc(F)cc1)N1C[C@H](C)N(c2c(C#N)c(=O)n(C)c3ccc(C#N)nc23)C[C@H]1C (single isomer, unassigned) [Example 111] |  | 0.073 |
| 240 | 3.5 | Cn1c(=O)cc(N2CCN(C(c3ccc(F)cc3)c3ccc(F)cc3)C(C(=O)NC3CC3)C2)c2nc(C#N)ccc21 (racemic) [Example 46, 1-(bis(4-fluorophenyl)methyl)-4-(6-cyano-1-methyl-2-oxo-1,2-dihydro-1,5-naphthyridin-4-yl)-N-cyclopropylpiperazine-2-carboxamide] |  | 4.7 |
| 140 | 94 | Cn1c(=O)c(C#N)c(N2CCN(C(c3ccc(F)cc3)c3ccc(F)cc3)C(C(=O)O)C2)c2nc(C#N)ccc21 (single isomer, unassigned) [Example 53, 1-(bis(4-fluorophenyl)methyl)-4-(3,6-dicyano-1-methyl-2-oxo-1,2-dihydro-1,5-naphthyridin-4-yl)piperazine-2-carboxylic acid] |  | 10 |
| 10 | 63 | Cn1c(=O)c(C#N)c(N2CCN(C(c3ccc(F)cc3)c3ccc(F)cc3)CC2CO)c2nc(Br)ccc21 (stereo not drawn) [Example 118, 4-(4-(bis(4-fluorophenyl)methyl)-2-(hydroxymethyl)piperazin-1-yl)-6-bromo-1-methyl-2-oxo-1,2-dihydro-1,5-naphthyridine-3-carbonitrile] |  | 0.71 |
| 40 | 65 | Cn1c(=O)cc(N2CCN(C(c3ccc(F)cc3)c3ccc(F)cc3)CC2C(N)=O)c2nc(C#N)ccc21 (single isomer, unassigned) [Example 142, 4-(bis(4-fluorophenyl)methyl)-1-(6-cyano-1-methyl-2-oxo-1,2-dihydro-1,5-naphthyridin-4-yl)piperazine-2-carboxamide] |  | 10 |
| 3.6 | 13 | C[C@@H]1CN(c2c(C#N)c(=O)n(C)c3ccc(Br)nc23)[C@@H](C)CN1C(c1ccc(F)cc1)c1ccc(F)cc1 [Example 158, 4-((2S,5R)-4-(bis(4-fluorophenyl)methyl)-2,5-dimethylpiperazin-1-yl)-6-bromo-1-methyl-2-oxo-1,2-dihydro-1,5-naphthyridine-3-carbonitrile] |  | 0.11 |
| 3.6 | 8.8 | Cn1c(=O)cc(N2CCN(C(c3ccc(F)cc3)c3ccc(F)cc3)CC2CF)c2nc(C#N)ccc21 (single isomer, unassigned) [Example 151, 8-(4-(bis(4-fluorophenyl)methyl)-2-(fluoromethyl)piperazin-1-yl)-5-methyl-6-oxo-5,6-dihydro-1,5-naphthyridine-2-carbonitrile] | 0.15 |  |
| 240 | 170 | Cn1c(=O)c(C#N)c(N2CCN(C(c3ccc(F)cc3)c3ccc(F)cc3)C(C(=O)NC3CC3)C2)c2nc(C#N)ccc21 (single isomer, unassigned) [Example 61, 1-(bis(4-fluorophenyl)methyl)-N-cyclopropyl-4-(3,6-dicyano-1-methyl-2-oxo-1,2-dihydro-1,5-naphthyridin-4-yl)piperazine-2-carboxamide] | 10 |  |
| 52 | 140 | Cn1c(=O)c(C#N)c(N2CCN(C(c3ccc(F)cc3)c3ccc(F)cc3)C(C(N)=O)C2)c2nc(C#N)ccc21 (single isomer, unassigned) [Example 57, 1-(bis (4-fluorophenyl)methyl)-4-(3,6-dicyano-1-methyl-2-oxo-1,2-dihydro-1,5-naphthyridin-4-yl)piperazine-2-carboxamide] |  | 6 |
| 17 | 79 | COc1ccc2c(n1)c(N1C[C@@H](C)N(C(c3ccccc3)c3ccc(F)cc3)C[C@@H]1C)cc(=O)n2C (single isomer, unassigned) [Example 238] |  | 5 |
| 48 | 15 | Cn1c(=O)cc(N2CCN(C(c3ccc(F)cc3)c3ccc(F)cc3)CC2CO)c2nc(C#N)ccc21 (single isomer, unassigned) [Example 147, 8-(4-(bis(4-fluorophenyl)methyl)-2-(hydroxymethyl)piperazin-1-yl)-5-methyl-6-oxo-5,6-dihydro-1,5-naphthyridine-2-carbonitrile] | 2 |  |
| 84 | 14 | Cn1c(=O)cc(N2CCN(C(c3ccc(F)cc3)c3ccc(F)cc3)CC2CO)c2nc(C#N)ccc21 (racemic) [Example 146, 8-(4-(bis(4-fluorophenyl)methyl)-2-(hydroxymethyl)piperazin-1-yl)-5-methyl-6-oxo-5,6-dihydro-1,5-naphthyridine-2-carbonitrile] |  | 0.66 |
| 240 | 33 | COC(=O)C1CN(C(c2ccc(F)cc2)c2ccc(F)cc2)CCN1c1cc(=O)n(C)c2ccc(C#N)nc12 (single isomer, unassigned) [Example 137, Methyl 4-(bis(4-fluorophenyl)methyl)-1-(6-cyano-1-methyl-2-oxo-1,2-dihydro-1,5-naphthyridin-4-yl)piperazine-2-carboxylate] | 1.5 |  |
| 150 | 25 | Cn1c(=O)cc(N2CCN(C(c3ccc(F)cc3)c3ccc(F)cc3)CC2C(=O)NC2CC2)c2nc(C#N)ccc21 (single isomer, unassigned) [Example 140, 4-(bis(4-fluorophenyl)methyl)-1-(6-cyano-1-methyl-2-oxo-1,2-dihydro-1,5-naphthyridin-4-yl)-N-cyclopropylpiperazine-2-carboxamide] | 6.6 |  |
| 27 | 4.4 | COC(=O)C1CN(c2c(F)c(=O)n(C)c3ccc(C#N)nc23)CCN1C(c1ccc(Cl)cc1)c1ccc(Cl)cc1 (single isomer, unassigned) [Example 94, methyl 1-(bis(4-chlorophenyl)methyl)-4-(6-cyano-3-fluoro-1-methyl-2-oxo-1,2-dihydro-1,5-naphthyridin-4-yl)piperazine-2-carboxylate] | 0.4 |  |
